Experimental data reported in article PMC9655618 (Cancers, 2022).

Tests used:
[1] = system: T47D cells; experiment: MTT cell viability assay; format: cell-based, human; conditions: Homo sapiens, T47D, 72 h, 10%FBS growth media
Experimental: Straightforward, the tetrazolium salt 3-(4,5-methyltiazol-2yl-)-2,5diphenyl-tetrazolium bromide (MTT) (Applichen, Darmstadt, Germany) was added to cells, incubated for 2–4 h at 37 °C, and lysed in 10% SDS. The mitochondrial metabolization of the tetrazolium salt was determined by the analysis of the optical density at 595 nm, measured with the iMark microplate Reader (Bio–Rad, Irvine, CA, USA).

[2] = system: VERO cells; experiment: MTT cell viability assay; format: cell-based, monkey; conditions: Primates, Vero, 72 h, 10%FBS growth media
Experimental: (§1) Straightforward, the tetrazolium salt 3-(4,5-methyltiazol-2yl-)-2,5diphenyl-tetrazolium bromide (MTT) (Applichen, Darmstadt, Germany) was added to cells, incubated for 2–4 h at 37 °C, and lysed in 10% SDS.

[3] = system: PBMC; experiment: MTT cell viability assay; format: cell-based; conditions: Homo sapiens, 72 h, 10%FBS growth media
Experimental: as §1

[4] = system: T47D cells; experiment: Real-time monitoring of 2D cell growth (IncuCyte); format: cell-based; conditions: Homo sapiens, 120 h, complete estrogenic media (10%FBS), 5 days, AUC
[5] = system: MCF-7 cells; experiment: Real-time monitoring of 2D cell growth (IncuCyte); format: cell-based; conditions: Homo sapiens, MCF7, 120 h; complete estrogenic media (10%FBS), 5 days, AUC
Experimental: (§2) To monitor long-term growth, human ER+ BC (T47-D, MCF-7, MCF-7/BUS), ER+ endometrial (Ishiwaka, High Point, NC, USA), or non-malignant breast (MCF-10A) cells were seeded at 3000–6000 cells per well. […] When indicated, cells were estrogen-deprived in a 10DCC-FBS supplemented medium for one week. […] Cytotoxicity was monitored by using YOYO-1 (Invitrogen, Waltham, MA, USA). Cell proliferation and cytotoxicity were monitored by sequential real-time microphotographs in an IncuCyte HD real-time imaging system (Essen BioScience, Hertfordshire, UK) for 5–10 days. The area under the curve (AUC) was then analyzed to know both the kinetics and dose-effect relationships. […] Next, cells were treated with VEH (0.05% DMSO) or test compounds for 5–10 days. Spheroid size and cell cytotoxicity were recorded with the Incucyte SX5 Live-Cell Analysis Instrument (Sartorius AG, Göttingen, Germany). To calculate the spheroid growth area, confluence measurements were taken considering the largest brightfield object area (µm^2). Cytotoxicity was monitored by using YOYO-1 (Essen Bioscience, Hertfordshire, UK).

[6] = Real-time monitoring of cell proliferation and cytotoxicity (YOYO-1); conditions: human, Ishikawa cells (ER+ endometrial cancer cells)
Experimental: as §2

[7] = system: Ishikawa cells; experiment: as above; conditions: for effect on growth of E2-depleted Ishikawa cells: 4-OHTAM 3 μM, compounds 5 µM, 7 days; for IC50: Homo sapiens, Ishikawa, 120 h, read-out: IC50, cell proliferation (AUC)
Experimental: as §2

[8] = system: alkaline phosphatase (ALP) activity in Ishikawa cells; experiment: Alkaline phosphatase assay; format: cell-based, human; conditions: for effect on E2-induced ALP activity: E2 10 nM, 48 h and 72 h
Experimental: Human endometrium cells ([…]) were cultured in MEM without phenol red with Earle's Salts culture, which was supplemented with estrogen-deprived 10 DCC-FBS du-ring 5 days. […] Cells were washed with ice-cold PBS, and Alkaline Phosphatase (ALP) activity was measured by using ALP Assay Kit (Abcam, Cambridge, MA, USA). The substrate p-nitrophenyl phosphate (pNPP) and the ALP enzyme were used to detect ALP activity by the analysis of the optical density at 405 nm in the iMark microplate Reader (Bio-Rad, Irvine, CA, USA). […] Protein concentration was quantified with the bicinchoninic acid assay (BCA) kit (Bio-Rad).

[9] = target: T1, ERα protein level in T47D cells (Homo sapiens, UniProt P03372); experiment: Immunoblotting; format: cell-based; conditions: E2-non depleted T47D cells, 24, 48 and 72 h
T1 construct: from whole-cell extracts of T47D cells; endogenous in cells; host or cells: T47D
Experimental: Then, they were washed with ice-cold PBS supplemented with 1 mM ortovanadate and lysed with RIPA buffer containing protease and phosphatase inhibitors (Thermo Fisher Scientific, Waltham, MA, USA). Equal protein amounts were analyzed by SDS–PAGE, and transferred to nitrocellulose membranes (Thermo Fisher Scientific, Waltham, MA, USA), blocked with Tris-buffered saline/0.05% Tween 20 (TBS-T) containing 5% blotto (Merck, Darmstadt, Germany) or 5% BSA for total and phosphorylated proteins, respectively. Immunoblotting was carried out with mouse anti-ERα F-10 (Santa Cruz Biotech, Santa Cruz, CA, USA), rabbit total anti-STAT5 (Cell Signaling Technology, Leiden, The Netherlands) or mouse anti-polyubiquitin (EMD Millipore, Burlington, MA, USA). After washing, membranes were incubated with horseradish peroxidase-conjugated secondary antibodies (Bio-Rad) for 1 h at room temperature. The β-actin antibody (Santa Cruz Biotech, CA, USA) was used as the loading control. Finally, protein bands were visualized by using Clarity™ Western ECL Substrate (Bio-Rad) in the ChemiDoc XRS system (Bio-Rad) and were analyzed with Quantity One software (Bio-Rad).

[10] = target: T2, ERα protein in T47D E2-deprived cells (Homo sapiens, UniProt P03372); experiment: Immunofluorescence (confocal microscopy); format: cell-based; conditions: 5 µM 24 h, then E2 1 nM 30 min
T2 construct: ERα protein expression were also explored in T47D E2-deprived BC cells; endogenous in cells; host or cells: T47D (steroid-deprived)
Experimental: T47D cells were seeded with steroid-deprived FBS (10% DCC-FBS) RPMI medium supplemented with L-Glutamine/HEPES/sodium pyruvate/PEST. Then, cells were seeded at 175,000 cells/well in 5% DCC-FBS in 6-well plates containing 22 × 22 mm coverslips (Menzelgläser, vWR, Radnor, PA, USA). […] After this, cells were washed with PBS, fixed in 4% paraformaldehide (PFA; Sigma-Aldrich, St. Louis, MO, USA) for 15 min, blocked-permeabilized in PBS-0.5% BSA-0.1% Triton X-100 (Thermo Scientific, Waltham, MA, USA) for 1 h, and, finally, incubated with mouse ERα (Santa Cruz Biotech, CA, USA) and rabbit β-catenin (C2206 Sigma-Aldrich, St. Louis, MO, USA) primary antibodies in the same blocking solution overnight at 4 °C within a hand-made humid chamber. After three washing with PBS-0.5% BSA-0.1% Triton X-100 (Thermo Scientific, Waltham, MA, USA), cells were incubated with anti-mouse Alexa fluor 488 (Life Technologies, CA, USA) or anti-rabbit Alexa 647 (Life Technologies, Carlsbad, CA, USA) secondary antibodies, containing DAPI (4′,6-diamidino-2-phenylindole; Sigma-Aldrich, St. Louis, MO, USA), for 1 h at room temperature. Finally, slides were mounted with Fluormount-G® (Thermo Fisher Scientific, Waltham, MA, USA), and cells were visualized using a confocal microscope Zeiss LSM 800 (Carl Zeiss AG, Jena, Germany). The fluorescent signal was quantified by using a segmentation method for image analysis.

SMILES	IC50 [1] [µM]	IC50 [2] [µM]	IC50 [3] [µM]	IC50 [4] [µM]	IC50 [5] [µM]	EC50 at 5 days [6] [µM]	effect on growth of E2-depleted Ishikawa cells [7]	IC50 [7] [µM]	effect on E2-induced ALP activity [8]	ALP activity, % of E2-induced maximal activity (Emax) ([8]; absence of E2)	effect on ERα protein level [9]	effect on ERα protein levels by confocal microscopy [10]	Emax ([8]; Homo sapiens, Ishikawa, read-out: ALP activity, % of E2-induced maximal activity (Emax)) [%]
O=C1C(c2ccc([N+](=O)[O-])cc2)=CC(O)(c2ccccc2)N1Cc1ccccc1 (stereo not drawn) [compound 35, 1-benzyl-5-hydroxy-3-(4-nitrophenyl)-5-phenyl-1H-pyrrol-2(5H)-one]	5.31 ± 0.47	9.61 ± 0.16	17.3 ± 6.48	6.98 ± 1.15	4.3 ± 0.77	10	this effect was not observed	3.81	inhibited E2-induced ALP activity	did not affect basal	dose-dependent (Figure 14B) decrease of ERα protein content	significantly decreased ERα protein levels both in nuclei and cytoplasmic compartments	–
Cc1ccc(C2=CC(O)(c3ccccc3)N(Cc3ccccc3)C2=O)cc1C (stereo not drawn) [compound 32, 1-benzyl-3-(3,4-dimethylphenyl)-5-hydroxy-5-phenyl-1H-pyrrol-2(5H)-one]	10.6 ± 0.58	14.7 ± 1.31	> 30	5.34 ± 2.47	1.52 ± 1.25	> 10	this effect was not observed	2.1	inhibited E2-induced ALP activity	–	needed a longer time of cell exposure	showed no effects	18
